# Laboratory results taken from ChEMBL document CHEMBL1201862, “PubChem BioAssay data set” (2004).
# Calls of active or inactive are those of the source.
# Columns and labels:
# [1] = target: T1, Heat shock factor protein 1 (Mus musculus, UniProt P38532); assay: HSF1 potentiators in luciferase reporter cells, confirmation, cell-based, NIH3T3, luminescence, dose retest (AID 435004); type: functional;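 also: stress induced by proteasome inhibitor MG132 added 30 min after compound; luciferase reporter driven by HSF1 response element in NIH3T3 cells; actives raise luminescence as potentiators of the MG132 stress response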
# T1 sequence (P38532 whole entry): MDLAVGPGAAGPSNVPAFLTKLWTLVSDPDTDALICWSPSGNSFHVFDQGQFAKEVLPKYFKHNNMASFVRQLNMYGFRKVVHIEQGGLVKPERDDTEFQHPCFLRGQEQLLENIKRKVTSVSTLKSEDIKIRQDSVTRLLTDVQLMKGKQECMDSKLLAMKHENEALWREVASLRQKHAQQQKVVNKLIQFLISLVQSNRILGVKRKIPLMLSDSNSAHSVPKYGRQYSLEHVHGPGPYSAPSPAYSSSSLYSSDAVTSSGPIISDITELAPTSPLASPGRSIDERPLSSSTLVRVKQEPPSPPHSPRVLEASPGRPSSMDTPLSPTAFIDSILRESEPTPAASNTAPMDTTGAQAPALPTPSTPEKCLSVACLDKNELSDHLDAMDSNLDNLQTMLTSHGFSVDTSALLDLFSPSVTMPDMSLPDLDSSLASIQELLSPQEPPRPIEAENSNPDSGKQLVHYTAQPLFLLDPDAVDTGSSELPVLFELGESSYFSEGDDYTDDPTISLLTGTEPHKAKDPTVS
# H4 = assay: Luminescence Cell-Based Dose Response HTS to Identify Activators of 5'UTR Stem-Loop Driven Prion Protein mRNA Translation in H4 Neuroglioblastoma Cells. [Related pubchem assays: 1829 (Project Summary), 1814 (Primary HTS)]; type: functional; details: Homo sapiens
# [2] = Luminescence Cell-Based Dose Confirmation HTS to Identify Activators of 5'UTR Stem-Loop Driven Alpha-Synuclein mRNA Translation in H4 Neuroglioblastoma Cells. [Related pubchem assays: 1829 (Project Summary), 1814 (Primary HTS)]; type: functional
# [3] = Luminescence Cell-Based Dose Response HTS to Identify Activators of Luciferase Translation or Activity in H4 […] Cells. [Related pubchem assays: 1829 (Project Summary), 1814 (Primary HTS)]; type: functional
# [4] = target: T1, Heat shock factor protein 1; assay: inhibition of MG132-induced HSE-luciferase signal, confirmation, cell-based, NIH3T3, luminescence, dose retest (AID 2382); type: functional;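 also: NIH3T3 fibroblasts with HSF1-driven luciferase reporter stressed by proteasome inhibitor MG132; luminescence from HSF1-driven luciferase expression after 8 hours of MG132 stress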
# [5] = target: T2, Replicative DNA helicase DnaB (Mycobacterium tuberculosis, UniProt P9WMR3); assay: DnaB intein splicing inhibitors, dose response, biochemical, cell-free fluorescence (AID 449749); type: functional
# T2 sequence (P9WMR3 whole entry): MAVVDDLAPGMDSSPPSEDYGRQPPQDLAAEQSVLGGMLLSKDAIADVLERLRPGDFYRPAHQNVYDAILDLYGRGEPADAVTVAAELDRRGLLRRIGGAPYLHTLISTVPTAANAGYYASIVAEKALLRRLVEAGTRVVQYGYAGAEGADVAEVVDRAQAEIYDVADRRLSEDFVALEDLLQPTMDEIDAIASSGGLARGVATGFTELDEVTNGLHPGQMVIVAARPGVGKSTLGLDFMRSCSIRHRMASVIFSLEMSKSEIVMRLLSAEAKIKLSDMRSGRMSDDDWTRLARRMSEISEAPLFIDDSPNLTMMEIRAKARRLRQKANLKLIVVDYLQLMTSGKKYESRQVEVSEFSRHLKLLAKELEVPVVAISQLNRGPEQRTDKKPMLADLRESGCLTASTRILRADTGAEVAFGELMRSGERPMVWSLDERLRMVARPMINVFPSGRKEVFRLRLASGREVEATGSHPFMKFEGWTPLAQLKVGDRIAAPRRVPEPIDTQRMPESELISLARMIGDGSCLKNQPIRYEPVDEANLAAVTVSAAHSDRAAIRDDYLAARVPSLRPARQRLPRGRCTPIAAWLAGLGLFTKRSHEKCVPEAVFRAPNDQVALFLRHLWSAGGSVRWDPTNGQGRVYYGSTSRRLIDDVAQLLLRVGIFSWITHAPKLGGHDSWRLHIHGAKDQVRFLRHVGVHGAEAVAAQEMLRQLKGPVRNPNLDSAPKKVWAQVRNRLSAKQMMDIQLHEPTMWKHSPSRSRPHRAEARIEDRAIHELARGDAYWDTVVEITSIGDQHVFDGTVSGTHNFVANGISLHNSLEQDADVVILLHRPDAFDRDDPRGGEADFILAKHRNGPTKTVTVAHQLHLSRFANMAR
# [6] = target: T3, Rac GTPase-activating protein 1 (Homo sapiens, UniProt Q9H0H5); assay: MgcRacGAP GTPase-activating activity inhibitors, confirmation, biochemical, ADP Hunter fluorescence, primary and confirmatory (AID 624330); type: functional
# T3 sequence (Q9H0H5 whole entry): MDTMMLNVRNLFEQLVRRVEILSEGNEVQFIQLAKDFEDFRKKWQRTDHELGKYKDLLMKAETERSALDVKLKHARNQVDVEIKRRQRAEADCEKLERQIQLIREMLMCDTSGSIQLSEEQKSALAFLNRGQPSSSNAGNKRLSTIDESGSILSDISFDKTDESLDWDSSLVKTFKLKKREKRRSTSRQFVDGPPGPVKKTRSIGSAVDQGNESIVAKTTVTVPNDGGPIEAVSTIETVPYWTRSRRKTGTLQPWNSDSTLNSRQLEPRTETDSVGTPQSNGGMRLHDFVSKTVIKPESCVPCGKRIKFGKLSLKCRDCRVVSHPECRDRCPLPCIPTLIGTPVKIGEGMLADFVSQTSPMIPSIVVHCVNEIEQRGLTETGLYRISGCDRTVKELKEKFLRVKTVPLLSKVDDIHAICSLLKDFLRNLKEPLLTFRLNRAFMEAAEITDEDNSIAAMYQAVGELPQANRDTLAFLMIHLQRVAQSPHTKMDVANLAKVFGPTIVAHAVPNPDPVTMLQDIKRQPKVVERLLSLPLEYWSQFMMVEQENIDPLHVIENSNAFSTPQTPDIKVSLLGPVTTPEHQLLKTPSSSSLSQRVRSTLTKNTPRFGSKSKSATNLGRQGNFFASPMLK
# Protein RecA = target: T4, Protein RecA (Mycobacterium tuberculosis, UniProt P9WHJ3); assay: Fluorescence Cell-Free Homogeneous Dose Retest to Identify Inhibitors of RecA-Intein Splicing Activity. [Related pubchem assays (depositor defined):AID2097, AID2223, AID489010, AID492950]; type: functional
# T4 sequence (P9WHJ3 whole entry): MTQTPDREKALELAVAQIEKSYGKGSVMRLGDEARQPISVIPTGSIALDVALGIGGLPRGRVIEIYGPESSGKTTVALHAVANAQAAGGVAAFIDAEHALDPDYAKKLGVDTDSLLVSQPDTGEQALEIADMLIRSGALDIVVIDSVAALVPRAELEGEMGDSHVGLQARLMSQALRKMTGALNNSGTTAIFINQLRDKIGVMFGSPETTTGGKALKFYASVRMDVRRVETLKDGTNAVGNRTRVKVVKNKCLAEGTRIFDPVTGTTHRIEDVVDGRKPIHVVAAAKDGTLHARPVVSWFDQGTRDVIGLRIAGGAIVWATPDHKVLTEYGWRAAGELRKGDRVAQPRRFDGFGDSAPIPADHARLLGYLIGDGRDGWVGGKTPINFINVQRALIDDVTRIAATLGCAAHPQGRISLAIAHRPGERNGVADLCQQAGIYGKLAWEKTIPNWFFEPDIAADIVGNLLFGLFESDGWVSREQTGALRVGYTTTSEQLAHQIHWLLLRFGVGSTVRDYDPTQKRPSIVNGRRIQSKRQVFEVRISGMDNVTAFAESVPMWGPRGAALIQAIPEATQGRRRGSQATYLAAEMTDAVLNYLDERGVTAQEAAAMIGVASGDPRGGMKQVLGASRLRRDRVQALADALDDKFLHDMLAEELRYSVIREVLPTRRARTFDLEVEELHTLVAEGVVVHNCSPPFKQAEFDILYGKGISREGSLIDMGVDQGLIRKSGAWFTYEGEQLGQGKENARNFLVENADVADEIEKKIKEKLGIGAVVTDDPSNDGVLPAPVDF
# [7] = HEp-2 cell cytotoxicity, dose response, cytotoxicity control for RSV inhibitor project, HTS (AID 2410); type: functional; details: human respiratory syncytial virus
# Cytochrome P450 3A4 = Cytochrome P450 3A4 (Homo sapiens, UniProt P08684);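 also: CYP3A4 tested as one member of a cytochrome P450 panel screen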
# Cytochrome P450 3A4, sequence (P08684 whole entry): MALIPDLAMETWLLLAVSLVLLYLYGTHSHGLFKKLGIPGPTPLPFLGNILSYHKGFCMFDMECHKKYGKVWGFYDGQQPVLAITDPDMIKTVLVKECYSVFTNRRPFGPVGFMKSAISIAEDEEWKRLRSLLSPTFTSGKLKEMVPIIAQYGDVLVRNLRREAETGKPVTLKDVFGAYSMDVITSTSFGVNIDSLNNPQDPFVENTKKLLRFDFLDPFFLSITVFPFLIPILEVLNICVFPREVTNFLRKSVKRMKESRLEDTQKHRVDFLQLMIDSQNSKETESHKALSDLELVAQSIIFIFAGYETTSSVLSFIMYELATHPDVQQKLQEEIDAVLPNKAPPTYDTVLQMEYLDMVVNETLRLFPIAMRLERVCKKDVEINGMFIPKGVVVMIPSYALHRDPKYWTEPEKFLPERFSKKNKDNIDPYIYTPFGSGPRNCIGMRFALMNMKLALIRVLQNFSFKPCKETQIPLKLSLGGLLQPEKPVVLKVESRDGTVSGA
# Cytochrome P450 1A2 = target: T5, Cytochrome P450 1A2 (Homo sapiens, UniProt P05177);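 also: PubChem cytochrome P450 panel assay, CYP1A2 panel member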
# T5 sequence (P05177 whole entry): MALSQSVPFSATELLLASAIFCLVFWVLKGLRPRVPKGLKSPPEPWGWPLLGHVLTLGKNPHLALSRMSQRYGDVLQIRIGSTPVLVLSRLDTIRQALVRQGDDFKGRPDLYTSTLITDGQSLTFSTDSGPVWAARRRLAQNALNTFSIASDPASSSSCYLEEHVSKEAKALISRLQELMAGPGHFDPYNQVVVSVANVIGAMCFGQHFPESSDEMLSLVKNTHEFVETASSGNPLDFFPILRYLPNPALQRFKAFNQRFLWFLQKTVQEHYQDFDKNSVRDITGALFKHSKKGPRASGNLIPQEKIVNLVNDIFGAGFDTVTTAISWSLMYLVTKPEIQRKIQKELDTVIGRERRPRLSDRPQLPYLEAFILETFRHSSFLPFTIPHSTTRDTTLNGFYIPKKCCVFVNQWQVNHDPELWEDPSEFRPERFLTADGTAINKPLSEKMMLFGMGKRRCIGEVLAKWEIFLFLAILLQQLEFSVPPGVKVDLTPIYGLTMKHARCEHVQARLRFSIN
# Paired box protein Pax-8 = Paired box protein Pax-8 (Homo sapiens, UniProt Q06710); assay: inhibitors of PAX8-driven TPO luciferase reporter, dose response, RMG-I cells, cherry-pick (AID 687027); type: functional, cell-based;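 also: luciferase reporter driven by Pax8 target thyroperoxidase promoter measured by SteadyGlo luminescence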
# Paired box protein Pax-8, sequence (Q06710 whole entry): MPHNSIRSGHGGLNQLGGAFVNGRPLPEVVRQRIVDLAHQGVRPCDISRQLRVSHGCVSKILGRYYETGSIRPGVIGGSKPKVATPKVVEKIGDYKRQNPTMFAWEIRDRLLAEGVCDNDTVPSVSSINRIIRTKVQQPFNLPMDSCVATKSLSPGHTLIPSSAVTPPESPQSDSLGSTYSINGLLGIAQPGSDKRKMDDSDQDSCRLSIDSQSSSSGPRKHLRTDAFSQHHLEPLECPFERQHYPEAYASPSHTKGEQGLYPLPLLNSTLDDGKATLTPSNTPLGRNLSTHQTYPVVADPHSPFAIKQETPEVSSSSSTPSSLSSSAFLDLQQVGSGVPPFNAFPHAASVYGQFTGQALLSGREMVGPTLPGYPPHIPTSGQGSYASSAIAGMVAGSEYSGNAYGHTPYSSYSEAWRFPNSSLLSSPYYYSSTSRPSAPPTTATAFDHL
structure (smiles),measurement,setting,value
NS(=O)(=O)c1ccc(CCNC(=O)c2ccc([N+](=O)[O-])s2)cc1,EC50,[1],15.7 µM (active)
CCOC(=O)c1c(N2C(=O)C3C4C=CC(O4)C3C2=O)sc2c1CCCC2 (configuration not stated),EC50,[1],> 260 µM (inactive)
CCOc1ccc(NC(=O)c2cccc3ccccc23)cc1,EC50,H4,> 120 µM (not active)
same,EC50,[2],72.3 µM (active)
same,EC50,[3],11.5 µM (active)
CCc1ccc(NC(=O)c2cnc3scc(C)n3c2=O)cc1,EC50,H4,12.6 µM (active)
same,EC50,[2],9.98 µM (active)
same,EC50,[3],17.6 µM (active)
O=C(CCS(=O)(=O)c1ccccc1)Nc1ccccn1,EC50,[1],> 260 µM (inactive)
CSc1ccc(N2C(=O)NC3(CCCCC3)C2=O)cc1,EC50,H4,19.7 µM (active)
same,EC50,[2],20.4 µM (active)
same,EC50,[3],96.3 µM (active)
O=C(CSc1ncccn1)NCCc1ccccc1,EC50,[4],> 195 µM (not active)
COc1cccc(-n2c(SCC(=O)NCC3CCCO3)nc3c(c2=O)SCC3)c1 (configuration not stated),EC50,[4],> 195 µM (not active)
Cc1cc(O)ccc1Nc1nc(-c2cccs2)cs1,AC50,[5],13.2 µM (active)
same,IC50,[6],46.5 µM (active)
same,EC50,Protein RecA,11.5 µM (active)
same,CC50,[7],21 µM (active)
COCCCNC(=O)c1ccc(NS(C)(=O)=O)cc1,EC50,[1],> 260 µM (inactive)
Cc1ccc(NC(=O)CN(C)C2CCCCC2)cc1Cl,IC50,[6],152 µM (active)
same,EC50,[4],> 195 µM (not active)
O=C(CSCc1ccccc1)Nc1ccc2c(c1)OCO2,EC50,H4,18.6 µM (active)
same,EC50,[2],26 µM (active)
same,EC50,[3],2.27 µM (inconclusive)
COc1cccc(CNc2ccc([N+](=O)[O-])cc2Cl)c1O,EC50,[1],163 µM (active)
Cc1ccc2c(c1)c1cccc3c1n2CCN3CCC(N)=O,EC50,H4,9.21 µM (active)
same,EC50,[2],1.71 µM (active)
same,EC50,[3],> 120 µM (not active)
Cc1ccc(SCCCCN2CCOCC2)cc1,EC50,[1],> 260 µM (inactive)
CC(C)(C)c1cc(-n2ccnc2)n2ncc(-c3ccc(Cl)cc3)c2n1,EC50,H4,78.9 µM (active)
same,EC50,[2],> 120 µM (not active)
same,EC50,[3],13.7 µM (active)
NC(CSCc1cccc(Br)c1)C(=O)O (configuration not stated),EC50,[1],> 260 µM (inactive)
Oc1ccccc1N1CCN(c2ncnc3scc(-c4ccc(F)cc4)c23)CC1,EC50,[4],> 195 µM (not active)
COc1ccc([C@@H]2[C@@H]3C(=O)N(C(C)(C)C)C(=O)[C@@H]3[C@]3(Cc4ccccc4)C(=O)N(c4cccc(C)c4)C(=O)N23)cc1,EC50,H4,> 120 µM (not active)
same,EC50,[2],> 120 µM (not active)
same,EC50,[3],> 120 µM (not active)
Oc1onc(-c2ccccc2)c1-c1ccccc1,EC50,[4],> 195 µM (not active)
CCCNC(=O)NC1C(NC(=O)NCCC)N(C)C(=O)N1C (configuration not stated),EC50,[4],> 195 µM (not active)
COc1ccccc1NC(=O)[C@H](COCc1ccccc1)NC(=O)OC(C)(C)C,AC50,Cytochrome P450 3A4,39.8 µM (inconclusive)
same,AC50,Cytochrome P450 1A2,25.1 µM (inconclusive)
same,EC50,[4],> 195 µM (not active)
C=CCn1c(C)cc(C(=O)COC(=O)CNC(=O)c2ccccc2)c1C,EC50,[4],2.44 µM (active)
CC1=CC(C)=Nc2cc(C)ccc2N1,EC50,H4,41.1 µM (active)
same,EC50,[2],33.3 µM (active)
same,EC50,[3],> 60 µM (not active)
CCOc1ccc(NC(=O)C2CC(=O)N3CCCN=C3S2)cc1 (configuration not stated),EC50,[1],> 260 µM (inactive)
Cc1ccc(S(=O)(=O)n2ccc(=O)[nH]2)cc1,EC50,[4],> 195 µM (not active)
COc1ccc(C(c2nnnn2Cc2ccccc2)N2CCC(n3c(O)nc4ccccc43)CC2)cc1 (configuration not stated),AC50,Paired box protein Pax-8,6.91 µM (active)
O=C(Cc1ccccc1)Nc1cc(Cl)ccc1Sc1ccccc1,EC50,[1],> 260 µM (inactive)
CN(C)c1ccc(/C=N/NC(=O)c2ccccc2Cl)cc1,EC50,[4],> 195 µM (not active)
COc1cc(/C=N/N2CCN(C3c4ccccc4-c4ccccc43)CC2)cc(OC)c1OC,EC50,[1],> 260 µM (inactive)
